Seven compounds from patent US6472541B2, “Protecting groups with increased photosensitivities” (The Regents of the University of California, priority 1998, dated 2002) can be followed below.

Assay type in all cases: physicochemical
Series [1] is described as follows: One-photon photolysis quantum efficiency (UV irradiation, HPLC analysis). On the procedure: (§1) The electronic absorption and emission properties of the compounds were measured and the stability of the compounds toward hydrolysis in the dark was tested. Stability in the dark can be used to help identify photolabile protecting groups that can be used in a variety of different conditions. Specifically, the quantum efficiencies for one-photon excitation and rates of hydrolysis in the dark were determined.
[…] The duration of each irradiation period was controlled by an electronic shutter. Between each irradiation, a small aliquot (10 μL) of the solution was removed for analysis by reversed phase HPLC with a Betabasic-18 column eluted with a isocratic mixture of 60% acetonitrile and water containing 0.1% trifluoracetic acid at a flow rate of 0.8 mL/min, using absorbance detection at 325 nm. […] […] Quantum efficiencies were calculated as (Iσt90%)^−1, where I is the irradiation intensity in einsteins (cm^−2s^−1), σ is the decadic extinction coefficient in cm^2mol^−1 (10^3 times ε, the usual extinction coefficient in M^−1cm^−1), and t90% is the irradiation time in seconds for 90% conversion to product. […] Dark hydrolysis rates were measured similarly except without illumination.

The nature of series [2]: Electronic absorption and emission properties. The settings on record: for λmax Wavelength of peak absorbance: pH 7.2; for ε Molar absorptivity at absorbance peak: pH 7.2, at absorbance peak. The protocol:
Generally, chemicals and solvents were used directly as received unless otherwise noted. Acetonitrile, chloroform and dichloromethane were dried over 4A molecular sieves. Proton magnetic resonance spectra (^1H NMR) were recorded on a Gemini 200 MHz spectrometer (Varian; Palo Alto, Calif.) and reported in ppm (δ) downfield from tetramethylsilane with residual solvent peaks as the internal standards. Ultraviolet spectra were recorded on a Cary 3E UV-Visible spectrophotometer (Varian, Palo Alto, Calif., USA). Fluorescence spectra were recorded on a Fluorolog spectrofluorometer (SPEX; Edison, N.J., USA). Mass spectra were recorded on a electrospray mass spectrometer (5989B, Hewlett-Packard; Palo Alto, Calif., USA). Thin layer chromatography (TLC) and column chromatography were performed on precoated silica gel 60F-254 plates and 230-400 mesh silica gel 60 respectively (EM Separations; Gibbstown, N.J., USA). All manipulations of compounds sensitive to near ultraviolet light were performed under an orange safety lamp.
as §1

A short description of series [3]: Hydrolysis in the dark (dark stability). The settings on record: buffered solution, read-out: t0.5 Half-life for hydrolysis in the dark (converted). On the procedure:
as §1
The photolysis quantum efficiencies for one-photon excitation were determined by irradiating a buffered solution of the substrate with 365 nm ultraviolet light from a B-100 mercury lamp (Spectronics Corp., Westbury, N.Y.). The duration of each irradiation period was controlled by an electronic shutter. Between each irradiation, a small aliquot (10 μL) of the solution was removed for analysis by reversed phase HPLC with a Betabasic-18 column eluted with a isocratic mixture of 60% acetonitrile and water containing 0.1% trifluoracetic acid at a flow rate of 0.8 mL/min, using absorbance detection at 325 nm. Optical densities at 365 nm were maintained near 0.1 so that inner-filtering of the irradiation could be neglected. […] Quantum efficiencies were calculated as (Iσt90%)^−1, where I is the irradiation intensity in einsteins (cm^−2s^−1), σ is the decadic extinction coefficient in cm^2mol^−1 (10^3 times ε, the usual extinction coefficient in M^−1cm^−1), and t90% is the irradiation time in seconds for 90% conversion to product. The total UV intensity, I, was measured by chemical actinometry with 6 mM potassium ferrioxalate in the same setup. Dark hydrolysis rates were measured similarly except without illumination.

The nature of series [4]: In vitro measurements of two-photon uncaging and fluorescence cross-sections. Conditions: pH 7.2. On the procedure: Measurements of cross-sections for two-photon uncaging were carried out in microcuvettes with cylindrical cavities having a 1 cm path length and 20 μL total volume (Type 26F, Starna). Femtosecond infrared pulses from a mode-locked titanium-sapphire laser (Spectra-Physics TSUNAMI, pumped by a Spectra-Physics MILLENNIUM) were aimed along the axis of the sample chamber and focused in its center with a 25 mm focal length lens (06LXP003/076, Melles Griot, Irvine, Calif.) optimized for infrared lasers. The pulse parameters were estimated by replacing the caged compound by a solution of fluorescein, a reference compound of known fluorescence quantum yield Qf2 (0.9) and two-photon absorbance cross-section δaF (30 and 38 GM at 740 and 800 nm respectively). The time-averaged fluorescence <F(t)>collected by the detector is given by equation (1)
<F(t)>=0.5φQf2δaFCF<I0^2(t)>∫S^2(r)dV (1)
where φ is the collection efficiency of the detector, CF is the concentration of fluorescein, <I0^2(t)> is the mean squared light intensity, S(r) is a unitless spatial distribution function, and the integral is over the volume of the microcuvette. The fluorescence emitted at right angles to the laser beam was measured through a 535 nm bandpass filter in front of a silicon photodiode radiometer (IL1700, International Light). The collection efficiency φ was estimated as Ay/(4πR^2n^2), where A is the area of the detector (0.38 cm^2), y is the fraction of the integrated emission spectrum transmitted by the interference filter (0.377), measured separately in a spectrofluorometer, R is the distance from the center of the cuvette to the detector (3.83 cm), and n is the refractive index of water (1.333). For photolysis of a caged compound or substrate, the number NP of molecules of product formed per unit time is (eq. 2):
NP=0.5Qu2δaSCS<I0^2(t)>∫S^2(r)dV (2)
where Qu2, δaS, and CS are the quantum efficiency for two-photon uncaging, absorbance cross-section, and concentration of the substrate, respectively. NP was measured by HPLC sampling of the microcuvette as for the one-photon photolysis. The uncaging action cross-section δu2 (≡Qu2δaS) can therefore be estimated by (eq. 3): [formula]
Similarly, when the substrate is also fluorescent, its two-photon fluorescence action cross-section δf2S (≡Qf2SδaS) can be estimated as (eq. 4): [formula]
Here the subscripts S and F distinguish values for the substrate and for the fluorescein reference. If one assumes that one- and two-photon quantum efficiencies are the same, then δu2/Qu1 and δf2S/Qf1S should both equal δaS. In fact, the former values are typically about twice the latter. All of them are directly proportional to the assumed value of Qf2 for fluorescein.

Series [5] is described as follows: Mechanism of photolysis (triplet state lifetime). An excerpt: The halogenated coumarin derivatives have good dark stability, and high one-photon and two-photon uncaging efficiencies. Without being bound to any particular theory, halogenation of the coumarin may have increased the two-photon cross-sections by lowering the pKa of the chromophore below physiological pH and promoting formation of the more strongly absorbing anion. Also, the heavy atoms may promote intersystem crossing to the triplet, which is believed to be the photochemically reactive state. […] The mechanism of photolysis of compound 7 and compound 23 indicate that the solvolysis occurs via the triplet state with a lifetime of about 1 μs. […] Although compound 6 had the highest cross-section, its photolysis was complicated by multiple secondary photoproducts. The monobromo compound (compound 5) was much more tractable and easily formed caged compounds.

Setting [6] is: 515 nm rather than 365 nm (footnote g).

In the case of `COc1cc(COC(=O)CCC(N)C(=O)O)c([N+](=O)[O-])cc1OC` (centres unmarked) [Compound 2, reference compound], in series [1], the “Qu1 Quantum efficiency for uncaging with one-photon excitation at 365 nm” value (“Qu1 Quantum efficiency for uncaging … at 365 nm” below) turned out to be 0.004; the “εQu1 One-photon action cross section (product of molar absorptivity and photolysis quantum yield) at 365 nm” value (“εQu1 One-photon action cross section … at 365 nm” for short) was found to be 29 M⁻¹ cm⁻¹. In series [2], the “ε Molar Absorptivity at 365 nm” value was 7,300 M^−1cm^−1, the “ε Molar Absorptivity at 400 nm” value is listed as 1,570 M^−1cm^−1, the “λmax Wavelength of peak absorbance” value is given as 345 nm and the “ε Molar absorptivity at absorbance peak” value is recorded as 8,860 M^−1cm^−1.

As for `CC(=O)OCc1cc(=O)oc2cc(O)c(Cl)cc12` [Compound 4, 6-Chloro-7-hydroxycoumarin-4-ylmethyl acetate], the half-life in series [3] is 228 h. Also, in series [1], the “Qu1 Quantum efficiency for uncaging … at 365 nm” value was 0.019; the “εQu1 One-photon action cross section … at 365 nm” value amounted to 302 M⁻¹ cm⁻¹. Moreover, in series [2], the “Qf1 Quantum efficiency for fluorescence with one-photon excitation” value (shortened to “Qf1 Quantum efficiency for fluorescence”) is on record as 0.37, the λem came to 474 nm, the “ε Molar Absorptivity at 365 nm” value is 15,900 M^−1cm^−1 and the “ε Molar Absorptivity at 400 nm” value is given as 5,000 M^−1cm^−1. Besides, in series [2], the “λmax Wavelength of peak absorbance” value was 370 nm and the “ε Molar absorptivity at absorbance peak” value is given as 16,000 M^−1cm^−1. Further, in series [4], the “δf (740 nm) fluorescence action cross-section for two-photon excitation” value is 9.68 ± 10^−50 cm^4s/photon, the “δu (740 nm) uncaging action cross-section for two-photon excitation” value is listed as 1.07 ± 10^−50 cm^4s/photon, the “δf (800 nm) fluorescence action cross-section for two-photon excitation” value is listed as 3.22 ± 10^−50 cm^4s/photon and the “δu (800 nm) uncaging action cross-section for two-photon excitation” value is recorded as 0.34 ± 10^−50 cm^4s/photon.

Regarding `CC(=O)OCc1cc(=O)oc2cc(O)c(Br)cc12` [Compound 5, 6-Bromo-7-hydroxycoumarin-4-ylmethyl acetate], the half-life in series [3] is 183 h. In addition, in series [1], the “Qu1 Quantum efficiency for uncaging … at 365 nm” value is listed as 0.037; the “εQu1 One-photon action cross section … at 365 nm” value was 548 M⁻¹ cm⁻¹. For the same compound, in series [2], the “Qf1 Quantum efficiency for fluorescence” value is recorded as 0.22, the λem stood at 474 nm, the “ε Molar Absorptivity at 365 nm” value was 14,800 M^−1cm^−1 and the “ε Molar Absorptivity at 400 nm” value is reported as 5,000 M^−1cm^−1. In addition, in series [2], the “λmax Wavelength of peak absorbance” value worked out at 370 nm and the “ε Molar absorptivity at absorbance peak” value is reported as 15,000 M^−1cm^−1. Moreover, in series [4], the “δf (740 nm) fluorescence action cross-section for two-photon excitation” value is reported as 4.24 ± 10^−50 cm^4s/photon, the “δu (740 nm) uncaging action cross-section for two-photon excitation” value is listed as 1.99 ± 10^−50 cm^4s/photon, the “δf (800 nm) fluorescence action cross-section for two-photon excitation” value was 1.41 ± 10^−50 cm^4s/photon and the “δu (800 nm) uncaging action cross-section for two-photon excitation” value is 0.42 ± 10^−50 cm^4s/photon.

In the case of `CC(=O)OCc1c(Br)c(=O)oc2c(Br)c(O)c(Br)cc12` [Compound 6, 3,6,8-Tribromo-7-hydroxycoumarin-4-ylmethyl acetate], the half-life in series [3] is 218 h. Besides, in series [1], the “Qu1 Quantum efficiency for uncaging … at 365 nm” value stood at 0.065; the “εQu1 One-photon action cross section … at 365 nm” value was 630 M⁻¹ cm⁻¹. Besides, in series [2], the “Qf1 Quantum efficiency for fluorescence” value was determined as 0.16, the λem is 498 nm, the “ε Molar Absorptivity at 365 nm” value was 9,700 M^−1cm^−1 and the “ε Molar Absorptivity at 400 nm” value was 15,700 M^−1cm^−1. Also, in series [2], the “λmax Wavelength of peak absorbance” value amounted to 397 nm and the “ε Molar absorptivity at absorbance peak” value is given as 15,900 M^−1cm^−1. Moreover, in series [4], the “δu (740 nm) uncaging action cross-section for two-photon excitation” value is 0.96 ± 10^−50 cm^4s/photon and the “δu (800 nm) uncaging action cross-section for two-photon excitation” value was 3.1 ± 10^−50 cm^4s/photon.

For the compound `N[C@@H](CCC(=O)OCc1cc(=O)oc2cc(O)c(Br)cc12)C(=O)O` [Compound 8, γ-(6-Bromo-7-hydroxycoumarin-4-yl)methyl glutamate], in series [1], the “Qu1 Quantum efficiency for uncaging … at 365 nm” value amounted to 0.019; the “εQu1 One-photon action cross section … at 365 nm” value turned out to be 364 M⁻¹ cm⁻¹. In series [2], the “ε Molar Absorptivity at 365 nm” value is reported as 19,200 M^−1cm^−1, the “ε Molar Absorptivity at 400 nm” value was 7,560 M^−1cm^−1, the “λmax Wavelength of peak absorbance” value came out at 369 nm and the “ε Molar absorptivity at absorbance peak” value is 19,550 M^−1cm^−1. Besides, in series [4], the “δu (740 nm) uncaging action cross-section for two-photon excitation” value was 0.89 ± 10^−50 cm^4s/photon and the “δu (800 nm) uncaging action cross-section for two-photon excitation” value is recorded as 0.42 ± 10^−50 cm^4s/photon.

Take `O=c1ccc2c(CCl)c3ccc(O)cc3oc-2c1` [Compound 9]: in series [1] (setting [6]), the “Qu1 Quantum efficiency for uncaging with one-photon excitation (measured at 515 nm)” value came to 0.038; the “εQu1 One-photon action cross section (ε and Qu1 measured at 515 nm)” value is 1,565 M^−1cm^−1. This compound also showed a λem in series [2] of 538 nm. Moreover, in series [2] (setting [6]), the “ε Molar Absorptivity (measured at 515 nm)” value was 41,200 M^−1cm^−1. In series [4], the “δu (740 nm) uncaging action cross-section for two-photon excitation” value is given as 1.6 10^−50 cm^4s/photon, the “δf (800 nm) fluorescence action cross-section for two-photon excitation” value is reported as 68 10^−50 cm^4s/photon and the “δu (800 nm) uncaging action cross-section for two-photon excitation” value is recorded as 2.6 10^−50 cm^4s/photon.

Turning to `CCOP(=O)(OCC)OCc1cc(=O)oc2cc(O)c(Br)cc12` [Compound 23, 6-Bromo-7-hydroxycoumarin-4-ylmethyl diethylphosphate], the “Lifetime of triplet state through which solvolysis occurs” value in series [5] is given as “about 1 μs”.
